Experimental data published in publication PMC5571359, “Screening the Medicines for Malaria Venture Pathogen Box across Multiple Pathogens Reclassifies Starting Points for Open-Source Drug Discovery” (Antimicrobial Agents and Chemotherapy, 2017).
Where two headings read alike, the source gives them in different places.

Key:
[1] = tested on: 3T3 host cells; experiment: T. cruzi assay, activity against 3T3 host cells; assay type: cell-based; settings: reference compound set; for IC50: IA = inactive at 16.4 μM
Experimental: page 4: […] Puromycin, 71 chloroquine, artesunate, DHA, pyronaridine and pyrimethamine were also tested in 72 IC50 format to act as internal reference compounds. 73 74 Intracellular anti-Trypanosoma cruzi Assay Protocol 75 The host cell cytoplasm, in which the parasite resides, is identified by the fluorescent 76 marker, HCS CellMask Green. Parasite and host cell nuclei are detected with the 77 fluorescent DNA intercalator, Hoechst 33342. The Opera® High Content Screening 78 System is used to take images of wells and a spot detection algorithm is used to 79 identify parasites within the cytoplasm. 80 81 Briefly, 1x 10^3 3T3 cells were added to collagen coated 384-well plates and following 82 24 hrs incubation at 37 °C, a multiplicity of infection (MOI) of 5:1 parasite: host cells 83 were added to the plate using a Multidrop liquid handler. Following additional 24 hrs 84 incubation, extracellular parasites were washed from the plates and RPMI with no […] 86 added to all wells. The final volume of media in the primary screening assay, before 87 addition of compound, was modified slightly to 55 µL. One µL of compounds, provided 88 by Compounds Australia, were diluted by the addition of 25 µL of sterile water. This […] 91 donovani). Five microliters of this dilution was added to assay plates. The final […] The final concentrations of compounds in the […] Following 48 hrs incubation in the presence 97 of compounds, wells were fixed, stained and read on the Opera® High Content 98 Screening System to assess compound activity. 99 The Z′-factor, as a measure of assay reproducibility, was determined from a plate […] The positive control used to calculate activity against […] To 103 assess the sensitivity of the T. cruzi assay, activity of the reference compounds 104 benznidazole, NFX, posaconazole and puromycin were determined. […] 108 resazurin as a measure of parasite viability. 109 T. b. brucei trypanosomes were cultured in vitro in HM1-9 medium supplemented with […] Fifty-five µL of logarithmic phase […] 112 incubated for 24 hrs at 37°C /5% CO2. Compounds were subsequently added to the […] Following […] 116 37°C / 5% CO2 followed by 22 hrs at room temperature. […] The percent

[2] = tested on: NF54-pfs16-LUC-GFP stage IV gametocytes; experiment: Plasmodium falciparum late stage gametocyte (LSG) image-based assay; assay type: cell-based; settings: for IC50 / inhibition at 20 µM: Plasmodium falciparum; for inhibition at 20 µM: NF54, read-out: percent inhibition at the top screening dose, P. falciparum NF54 LSG
[3] = tested on: L. donovani MHOM/IN/80/DD8 intracellular amastigotes; experiment: Leishmania donovani intracellular amastigote assay in THP-1 cells; assay type: cell-based; settings: for IC50 / inhibition at 20 µM: Leishmania donovani
[4] = tested on: T. cruzi intracellular amastigotes; experiment: Intracellular anti-Trypanosoma cruzi image-based assay (amastigotes); assay type: cell-based; settings: Trypanosoma cruzi; for inhibition at 16.4 µM: read-out: percent inhibition at the top screening dose, T. cruzi intracellular amastigotes; for Emax: read-out: T. cruzi Emax (maximal % inhibition plateau in dose response curve)
[5] = tested on: T. b. brucei 427 bloodstream trypanosomes; experiment: T. b. brucei resazurin viability assay; assay type: cell-based, Trypanosoma brucei brucei; settings: Trypanosoma brucei; for inhibition at 20 µM: read-out: percent inhibition at the top screening dose, T. brucei brucei
[6] = tested on: Plasmodium falciparum 3D7 asexual blood stage; experiment: microbe, parasite or virus in culture; settings: for inhibition at 20 µM: 3D7, read-out: percent inhibition at the top screening dose, P. falciparum 3D7 ABS
[7] = tested on: P. falciparum ABS; settings: cited from earlier work; for EC50: ChEMBL Data, TCMDC, read-out: TCMDC (ref 93) EX50; for IC50: Pf 3D7, ref Pathogen Box supporting information, read-out: Pf 3D7 Pbox IC50
[8] = tested on: P. falciparum stage V gametocytes; settings: cited from earlier work; for IC50: stage V gametocytes, ref Pathogen Box supporting information, read-out: PF stage V GAMS PBox IC50
[9] = tested on: liver stage; settings: liver stage; ref Pathogen Box supporting information; read-out: LIVER STAGE Pbox IC50; cited from earlier work
[10] = tested on: HepG2; settings: read-out: HepG2 PBox CC50 µM; HepG2 CC50; ref Pathogen Box supporting information; cited from earlier work
[11] = tested on: HEK293 cells; experiment: HEK293 resazurin cell cytotoxicity assay; settings: Homo sapiens; for inhibition at 20 µM: HEK293, read-out: HEK % Inhibition 20uM/IC50 Discovery Biology; for IC50: HEK293, read-out: HEK % Discovery Biology IC50 uM
[12] = NF54, read-out: IC50 P. falciparum NF54 LSG, reference compound set, 11-point dose response, IA = inactive at 20 μM
[13] = THP-1, read-out: IC50 L. donovani n = 1, reference compound set, first test, IA = inactive at 20 μM
[14] = THP-1, read-out: IC50 L. donovani n = 2, reference compound set, second test, IA = inactive at 20 μM
[15] = reference compound set, IA = inactive at 20 μM, read-out: IC50 T. brucei brucei trypomastigotes
[16] = 3D7, read-out: IC50 P. falciparum 3D7 ABS
[17] = NF54, read-out: Pf Stage IV GAMS Discovery Biology IC50 µM, stage IV gametocytes, Discovery Biology
[18] = 3D7, read-out: Pf 3D7 Discovery Biology IC50 µM, P. falciparum 3D7 asexual blood stage, Discovery Biology
[19] = THP-1, reference compound set, first test, 20 μM, read-out: percent inhibition at the top screening dose, L. donovani n = 1
[20] = THP-1, reference compound set, second test, 20 μM, read-out: percent inhibition at the top screening dose, L. donovani n = 2
[21] = reference compound set, IA = inactive at 16.4 μM, read-out: IC50 T. cruzi intracellular amastigotes
[22] = THP-1, intracellular amastigotes, Discovery Biology, some values carry an asterisk, read-out: L, donovani Discovery Biology IC50 µM
[23] = PBox compounds, read-out: IC50 T. brucei brucei (Discovery Biology)
[24] = read-out: T b.brucei Discovery Biology IC50

Row | Compound | IC50 [1] [µM] | IC50 [2, 12] [µM] | IC50 [3, 13] [µM] | IC50 [3, 14] [µM] | IC50 [5, 15] [µM] | IC50 [6, 16] [µM] | EC50 [7] [µM] | IC50 [7] [µM] | IC50 [2, 17] [µM] | IC50 [8] [µM] | IC50 [9] [µM] | CC50 [10] [µM] | IC50 [6, 18] [µM] | IC50 [4, 21] [µM] | other results
1 | O=C(Cn1ccnc1[N+](=O)[O-])NCc1ccccc1 [Benznidazole, reference compound] | > 16.4 | > 20 | > 20 | > 20 | > 20 | > 20 | – | – | – | – | – | – | – | – | inhibition at 16.4 µM ([4]; reference compound set): 94%
2 | COc1cc(-c2cc(-c3ccc(S(C)(=O)=O)cc3)cnc2N)ccc1O [MMV010576] | – | – | – | – | – | – | 0.1 | 0.1 | 0.15 | 0.066 | 2.52 | > 10 | 0.07 | – | IC50 ([3]; THP-1, PBox compounds, intracellular amastigotes, read-out: IC50 L. donovani (Discovery Biology)): 5.18 µM
3 | CC(=O)Oc1ccccc1C(=O)Nc1ncc([N+](=O)[O-])s1 [Nitazoxanide, reference compound] | > 16.4 | > 20 | – | – | – | > 20 | – | – | – | – | – | – | – | > 16.4 | inhibition at 20 µM [3, 19]: 44%; inhibition at 20 µM [3, 20]: 41%; inhibition at 20 µM ([5]; reference compound set): 41%
4 | C[C@@H]1[C@H](O)[C@@H](C)/C=C/C=C/C=C/C=C/C=C/C=C/C=C/[C@H](O[C@@H]2O[C@H](C)[C@@H](O)[C@H](N)[C@@H]2O)C[C@@H]2O[C@](O)(C[C@@H](O)C[C@@H](O)[C@H](O)CC[C@@H](O)C[C@@H](O)CC(=O)O[C@H]1C)C[C@H](O)[C@H]2C(=O)O [Amphotericin B] | > 16.4 | > 20 | – | > 20 | > 20 | – | – | – | – | – | – | – | – | > 16.4 | IC50 ([3]; THP-1, in-house control stock, not the PBox sample, two tests, read-out: IC50 of standard in-house assay control, L. donovani): 0.41 µM; inhibition at 20 µM [3, 19]: 100%; activity against L. donovani at 20 μM ([3]; PBox sample, 20 μM): not active; inhibition at 20 µM [6]: 87%
5 | COc1nc2ccc(Br)cc2cc1[C@@H](c1ccccc1)[C@@](O)(CCN(C)C)c1cccc2ccccc12 [Bedaquiline, reference compound] | > 16.4 | – | > 20 | > 20 | – | – | – | – | – | – | – | – | – | > 16.4 | inhibition at 20 µM [2]: 75%; inhibition at 20 µM ([5]; reference compound set): 59%; inhibition at 20 µM [6]: 91%
6 | CC(C)/N=c1\cc2n(-c3ccc(Cl)cc3)c3ccccc3nc-2cc1Nc1ccc(Cl)cc1 [Clofazimine, reference compound] | > 16.4 | > 20 | > 20 | > 20 | > 20 | – | – | – | – | – | – | – | – | > 16.4 | inhibition at 20 µM [6]: 84%
7 | CN1CCC(NCc2cccc(-c3ccc(S(=O)(=O)NCc4ccccc4)cc3)c2)CC1 [MMV022029] | – | – | – | – | – | – | 0.69 | 0.82 | 4.04 | 1.42 | 4.55 | > 10 | 0.69 | – | inhibition at 20 µM [11]: 100%; IC50 [3, 22]: 5.03 µM; IC50 [5, 23]: 2.38 µM
8 | COC(=O)Nc1nc2ccc(C(=O)c3ccccc3)cc2[nH]1 [Mebendazole, reference compound] | > 16.4 | > 20 | > 20 | > 20 | > 20 | > 20 | – | – | – | – | – | – | – | > 16.4 | –
9 | Cc1ccc2c(c1C)NC(=O)C21NN=C(c2ccccc2)S1 (stereo not drawn) [MMV019189] | – | – | – | – | – | – | 0.75 | 1.13 | 1.97 | 0.9 | 0.88 | > 7.5 | 2.28 | – | IC50 [5, 24]: 4.68 µM
10 | CC1CS(=O)(=O)CCN1/N=C/c1ccc([N+](=O)[O-])o1 (stereo not drawn) [Nifurtimox, reference compound] | > 16.4 | – | > 20 | > 20 | 5.38 | > 20 | – | – | – | – | – | – | – | 1.42 | inhibition at 20 µM [2]: 39%; IC50 ([4]; in-house control stock, not the PBox sample, read-out: IC50 of standard in-house assay control, T. cruzi amastigotes): 1.23 µM; Emax ([4]; reference compound set): 100%
11 | O=C(Nc1ccccc1)c1ccc(-c2cc3ccncc3cc2OC2CCNCC2)s1 [MMV024035] | – | – | – | – | – | – | 0.65 | 0.57 | 4.48 | 2.28 | 7.37 | > 7.5 | 0.31 | – | IC50 [11]: 6.67 µM; IC50 [5, 24]: 2.72 µM
12 | CCN(CC)C(=O)N1CCN(C)CC1 [Diethylcarbamazine, reference compound] | > 16.4 | > 20 | > 20 | > 20 | > 20 | > 20 | – | – | – | – | – | – | – | > 16.4 | –
13 | COc1cc(NC(C)CCCN)c2ncccc2c1 (stereo not drawn) [Primaquine, reference compound] | – | – | – | – | – | – | – | – | – | – | – | – | – | – | inhibition at 16.4 µM ([1]; 16.4 μM, read-out: percent inhibition at the top screening dose, 3T3 host cells): 73%; inhibition at 20 µM [2]: 96%; inhibition at 20 µM [3, 19]: 33%; inhibition at 20 µM [3, 20]: 79%; inhibition at 16.4 µM ([4]; reference compound set): 94%; inhibition at 20 µM ([5]; reference compound set): 91%; inhibition at 20 µM [6]: 91%
14 | OC(c1cc(C(F)(F)F)nc2c(C(F)(F)F)cccc12)C1CCCCN1 (stereo not drawn) [Mefloquine, reference compound] | > 16.4 | 5.61 | 5.17 | 6.58 | 0.33 | – | – | – | – | – | – | – | – | 4.7 | Emax ([4]; reference compound set): 99%; IC50 ([6]; 3D7, read-out: IC50 P. falciparum 3D7 ABS, reference compound set, 11-point dose response, IA = inactive at 20 μM): < 0.016 µM
15 | CC(=O)NC[C@H]1CN(c2ccc(N3CCOCC3)c(F)c2)C(=O)O1 [Linezolid, reference compound] | > 16.4 | > 20 | > 20 | > 20 | > 20 | > 20 | – | – | – | – | – | – | – | > 16.4 | –
16 | O=C(Nc1ccc(N2CCNCC2)cc1)c1ccn2ncc(-c3cccc(Cl)c3)c2n1 [MMV022478] | – | – | – | – | – | – | 0.92 | 0.78 | 2.89 | 0.62 | > 10 | > 10 | 1.29 | – | activity in the Discovery Biology stage IV gametocyte (LSG) assay [2]: demonstrate activity; activity against gametocytes (stage V), PBox supporting information ([8]; ref Pbox supporting information): demonstrate activity; IC50 [11]: 8.11 µM; IC50 [3, 22]: 5.02 µM; IC50 ([4]; intracellular amastigotes, Discovery Biology, read-out: T cruzi Discovery Biology IC50): 4.7 µM; IC50 [5, 23]: 1.45 µM
17 | NS(=O)(=O)c1cccc(-c2ccc3ncc(N4CCOCC4)nc3c2)c1 [MMV023860] | – | – | – | – | – | – | 0.99 | 1.5 | 2.13 | 1.33 | 1.82 | > 10 | 0.89 | – | inhibition at 20 µM [11]: 40%
